Results from ChEMBL document CHEMBL1806436, “Structure--activity relationship studies of novel arylsulfonylimidazolidinones for their anticancer activity” (Eur J Med Chem, 2011).

Assays:
[1] = Anticancer activity against mouse P388D1 cells by MTT assay; format: functional, cell-based
[2] = Anticancer activity against human KATO III cells by MTT assay; format: functional, cell-based, KATO III cell
SK-OV-3 = assay: Anticancer activity against human SKOV3 cells by MTT assay; format: functional, cell-based
COLO 205 = assay: Anticancer activity against human COLO205 cells by MTT assay; format: functional, cell-based
A549 = assay: Anticancer activity against human A549 cells by MTT assay; format: functional, cell-based
K562 = assay: Anticancer activity against human K562 cells by MTT assay; format: functional, cell-based
Mus musculus [3] = assay: Toxicity in human SW620 cells xenografted BALB/c nu/nu mouse assessed as change in body weight at 65 mg/kg, po administered every alternative day for 12 days measured on day 20 (reference value: 1.1 g); format: organism-based, SW-620; set-up: dose 65 mg/kg, route oral; conditions: in vivo, 288 h
Mus musculus [4] = assay: Toxicity in human NCI-H23 cells xenografted BALB/c nu/nu mouse assessed as change in body weight at 65 mg/kg, po administered every alternative day for 12 days measured on day 20 (reference value: 1.2 g); format: organism-based; set-up: dose 65 mg/kg, route oral; conditions: in vivo, 288 h
NCI-H23 [5] = assay: Anticancer activity against human NCI-H23 cells xenografted in BALB/c nu/nu mouse assessed as tumor growth inhibition at 65 mg/kg, po every alternative day for 12 days measured on day 19; format: functional; conditions: read-out: TGI
SW-620 [6] = assay: Anticancer activity against human SW620 cells xenografted in BALB/c nu/nu mouse assessed as tumor growth inhibition at 65 mg/kg, po every alternative day for 12 days measured on day 19; format: functional; conditions: read-out: TGI
NCI-H23 [7] = assay: Anticancer activity against human NCI-H23 cells xenografted in BALB/c nu/nu mouse assessed as tumor growth inhibition at 1 mg/kg, ip qd for 11 days followed by 2 mg/kg, ip qd on day 12 to day 14 and 3 mg/kg, ip qd on day 15 to day 18 measured on day 19; format: functional
Mus musculus [8] = assay: Toxicity in human SW620 cells xenografted BALB/c nu/nu mouse assessed as change in body weight at 1 mg/kg, ip qd for 11 days followed by 2 mg/kg, ip qd on day 12 to day 14 and 3 mg/kg, ip qd on day 15 to day 18 measured on day 20 (reference value: 1.1 g); format: organism-based, SW-620; conditions: in vivo, 264 h
Mus musculus [9] = assay: Toxicity in human NCI-H23 cells xenografted BALB/c nu/nu mouse assessed as change in body weight at 1 mg/kg, ip qd for 11 days followed by 2 mg/kg, ip qd on day 12 to day 14 and 3 mg/kg, ip qd on day 15 to day 18 measured on day 20 (reference value: 1.2 g); format: organism-based; conditions: in vivo, 264 h
SW-620 [10] = assay: Anticancer activity against human SW620 cells xenografted in BALB/c nu/nu mouse assessed as tumor growth inhibition at 1 mg/kg, ip qd for 11 days followed by 2 mg/kg, ip qd on day 12 to day 14 and 3 mg/kg, ip qd on day 15 to day 18 measured on day 19; format: functional

Row | SMILES | IC50 (SK-OV-3) | IC50 (COLO 205) | IC50 (A549) | IC50 (K562) | IC50 [1] | IC50 [2] | Activity (Mus musculus [3]) | Activity (Mus musculus [4]) | inhibition in vivo at 65 mg/kg (NCI-H23 [5]) | inhibition in vivo at 65 mg/kg (SW-620 [6]) | TGI (NCI-H23 [7]) | Activity (Mus musculus [8]) | Activity (Mus musculus [9]) | TGI (SW-620 [10])
1 | O=C1NC(c2ccccc2)CN1S(=O)(=O)c1ccc2c(c1)CCCN2 (stereo not given) | 10.4 µM | 7.23 µM | > 20 µM | > 20 µM | 4.25 µM | > 20 µM | – | – | – | – | – | – | – | –
2 | COC(=O)N1CCCc2cc(S(=O)(=O)N3CC(c4ccccc4)NC3=O)ccc21 (stereo not given) | 3.48 µM | 4.01 µM | 1.15 µM | > 20 µM | 2.26 µM | 16.5 µM | – | – | – | – | – | – | – | –
3 | CCCCOC(=O)N1CCCc2cc(S(=O)(=O)N3CC(c4ccccc4)NC3=O)ccc21 (stereo not given) | 9.57 µM | 4.11 µM | > 20 µM | 3.68 µM | 2.08 µM | 4.01 µM | – | – | – | – | – | – | – | –
4 | C=CCOC(=O)N1CCCc2cc(S(=O)(=O)N3CC(c4ccccc4)NC3=O)ccc21 (stereo not given) | 2.75 µM | 6.58 µM | 4.31 µM | 0.473 µM | 0.945 µM | 5.05 µM | – | – | – | – | – | – | – | –
5 | O=C(CCl)N1CCCc2cc(S(=O)(=O)N3CC(c4ccccc4)NC3=O)ccc21 (stereo not given) | – | 11.2 µM | – | 1.09 µM | – | 3.46 µM | – | – | – | – | – | – | – | –
6 | O=C(c1ccccc1)N1CCCc2cc(S(=O)(=O)N3CC(c4ccccc4)NC3=O)ccc21 (stereo not given) | 8.56 µM | 19.3 µM | 8.14 µM | 1.22 µM | 5.34 µM | 14.3 µM | – | – | – | – | – | – | – | –
7 | O=C1NC(c2ccccc2)CN1S(=O)(=O)c1ccc2c(c1)CCCN2C(=O)C(F)(F)F (stereo not given) | 19.6 µM | 10.7 µM | > 20 µM | > 20 µM | 4.72 µM | 13.1 µM | – | – | – | – | – | – | – | –
8 | NC(=O)N1CCCc2cc(S(=O)(=O)N3CC(c4ccccc4)NC3=O)ccc21 (stereo not given) | > 20 µM | > 20 µM | 2.54 µM | 3.66 µM | 12.3 µM | 3.59 µM | – | – | – | – | – | – | – | –
9 | O=C(CCl)NC(=O)N1CCCc2cc(S(=O)(=O)N3CC(c4ccccc4)NC3=O)ccc21 (stereo not given) | 6.14 µM | 9.9 µM | 0.449 µM | 0.515 µM | 3.87 µM | 2.54 µM | 1 g | -0.6 g | 58.5% | 67% | – | – | – | –
10 | CC1(c2ccccc2)CN(S(=O)(=O)c2ccc3c(c2)CCCN3C(=O)C(F)(F)F)C(=O)N1 (stereo not given) | > 20 µM | > 20 µM | > 20 µM | > 20 µM | > 20 µM | > 20 µM | – | – | – | – | – | – | – | –
11 | CSc1ccc(NC(=O)N2CCCc3cc(S(=O)(=O)N4CC(C)(c5ccccc5)NC4=O)ccc32)cc1 (stereo not given) | > 20 µM | > 20 µM | > 20 µM | > 20 µM | > 20 µM | – | – | – | – | – | – | – | – | –
12 | COc1ccc(NC(=O)N2CCCc3cc(S(=O)(=O)N4CC(C)(c5ccccc5)NC4=O)ccc32)cc1 (stereo not given) | 9.47 µM | > 20 µM | 5.3 µM | 12.4 µM | 15.9 µM | – | – | – | – | – | – | – | – | –
13 | O=C(Nc1ccc(Cl)cc1)NS(=O)(=O)c1ccc2c(c1)CCC2 [SULOFENUR] | 78.2 µM | 23.1 µM | > 20 µM | 19.2 µM | > 100 µM | 31.4 µM | – | – | – | – | – | – | – | –

The next compounds have a lower IC50 (COLO 205) than those just listed; values first:

Row | IC50 (SK-OV-3) | IC50 (COLO 205) | IC50 (A549) | IC50 (K562) | SMILES | IC50 [1] | IC50 [2] | Activity (Mus musculus [3]) | Activity (Mus musculus [4]) | inhibition in vivo at 65 mg/kg (NCI-H23 [5]) | inhibition in vivo at 65 mg/kg (SW-620 [6]) | TGI (NCI-H23 [7]) | Activity (Mus musculus [8]) | Activity (Mus musculus [9]) | TGI (SW-620 [10])
14 | 2.88 µM | 2.78 µM | 0.344 µM | > 20 µM | CCOC(=O)N1CCCc2cc(S(=O)(=O)N3CC(c4ccccc4)NC3=O)ccc21 (stereo not given) | 1.43 µM | 11.2 µM | – | – | – | – | – | – | – | –
15 | 3.92 µM | 1.42 µM | 1.03 µM | > 20 µM | CCCOC(=O)N1CCCc2cc(S(=O)(=O)N3CC(c4ccccc4)NC3=O)ccc21 (stereo not given) | 2.02 µM | 3.3 µM | – | – | – | – | – | – | – | –
16 | 5.65 µM | 3.72 µM | > 20 µM | 2.38 µM | CC(C)COC(=O)N1CCCc2cc(S(=O)(=O)N3CC(c4ccccc4)NC3=O)ccc21 (stereo not given) | 1.25 µM | 2.75 µM | – | – | – | – | – | – | – | –
17 | 9.8 µM | 2.82 µM | > 20 µM | 10.6 µM | O=C(OCCCl)N1CCCc2cc(S(=O)(=O)N3CC(c4ccccc4)NC3=O)ccc21 (stereo not given) | 1.21 µM | 8.68 µM | – | – | – | – | – | – | – | –
18 | 1.84 µM | 3.89 µM | 0.231 µM | 0.813 µM | O=C(NC1CCCCC1)N1CCCc2cc(S(=O)(=O)N3CC(c4ccccc4)NC3=O)ccc21 (stereo not given) | 8.16 µM | 8.92 µM | 2 g | 1.6 g | 65.2% | 72.6% | – | – | – | –
19 | 2.95 µM | 0.4 µM | – | 0.198 µM | COc1cccc2c1C(=O)c1c(O)c3c(c(O)c1C2=O)C[C@@](O)(C(=O)CO)C[C@@H]3O[C@H]1C[C@H](N)[C@H](O)[C@H](C)O1 [DOXORUBICIN] | 0.338 µM | 4.38 µM | – | – | – | – | 39.6% | -2.3 g | -1.6 g | 45%
